Consider 2 molecules from patent publication US12331302B2, “Fungal autoinducible expression system” (priority 2019, dated 2025).

Holding throughout (assay type): cell-based, Saccharomyces cerevisiae
For one assay, the system named is strains JL277-JL280. Description: Autoinducible strains with endogenous α-factor production, fluorescence by TECAN plate reader. The note with it: JL277-280 with pFUS1J2-ubiM-Cre pTDH3-rtTA pTETO3-BAR1 and pTEF1-loxP-GFP-loxP-mCherry; with or without 5 μM α-factor. The procedure: To establish autoinducible strains, the α-factor-expressing gene MFα1 under control of four different native promoters with different expression strengths (pTDH3, pPGK1, pYEF3 and pACT1) is integrated into locus p416d into the genome of JL275, resulting in strains JL277-JL280, respectively. The strains are transformed with plasmids pFUS1J2-ubiM-Cre pTDH3-rtTA pTETO3-BAR1 and pTEF1-loxP-GFP-loxP-mCherry, inoculated into CSM-ura-leu supplemented with 5 μg/mL doxycycline and pre-cultured for two days. The pre-cultures are washed and inoculated to an OD of 0.05, and grown with or without 5 μM α-factor to compare endogenous and external inducibility. The strain fluorescence is measured with a TECAN plate reader. […] The strain also continued to produce GFP unless α-factor is added. This experiment is to be repeated according to the previously established strain characterization protocol and measured with a flow cytometer.

A further assay has as its system FUS1 promoter (pFUS1). Briefly: mCherry expression under control of pFUS1, with or without α-factor. The conditions noted are these: after 24 h, culture with addition of 5 μM α-factor. As to the method: (§1) Pre-cultures are prepared by inoculation of biological triplicates in CSM with appropriate amino acid drop out, and are grown for two days at 30° C., 250 rpm. Thereafter, they are inoculated to an OD of 0.05 in two duplicate tubes, whereof one is induced with 5 μM α-factor. Strains are grown at 30° C., 250 rpm for 24 h and samples are taken for flow cytometry after 0, 8 and 24 h. For characterization of strains with endogenous α-factor production, transformation plates and pre-culture media is supplemented with 5 μg/mL doxycycline. The pre-cultures are washed to remove Bar1 and doxycycline prior to inoculation. OD is measured at 600 nm and GFP and mCherry production is measured with a BD Accuri™ C6 flow cytometer from Becton, Dickinson and Company (Franklin Lakes, NJ, USA).
(§2) To test the initial system configuration, pFUS1-Cre and pTEF1-loxP-GFP-loxP-mCherry is transformed into strain JL275 (BY4741 MATa Δbar1 Δfar1). Precultures are grown for two days in CSM-ura-leu. Each replicate is used to inoculate two cultures, whereof one is induced with 5 μM α-factor. Fluorescence is measured after 0, 8 and 24 h. […] This indicated a high basal level expression from the FUS1 promoter, leading to leaky expression of Cre recombinase and early recombination. To investigate this hypothesis, mCherry is cloned under control of pFUS1 and mCherry expression is measured at 0 and 24 h. […]

The test system of assay [1] is Ste2 receptor / pFUS1J2-ubiM-Cre circuit in strain JL275. Description: Strain characterization: GFP and mCherry production by flow cytometry after α-factor induction of the Cre/loxP circuit. The note with it: JL275 with pFUS1J2-ubiM-Cre and pTEF1-loxP-GFP-loxP-mCherry. As to the method: as §1, §2
In assay [2] the test system is pTETO3-BAR1 control module in strain JL275. Briefly: Functionality of doxycycline-inducible BAR1 expression (supernatant/α-factor mix). The conditions noted are these: supernatant mixed with 600 μM α-factor, 30° C., 4 h. The procedure:
The functionality of Bar1 expression is investigated by transforming JL275 with pFUS1J2-ubiM-Cre pTDH3-rtTA pTETO3-BAR1 or control plasmid pFUS1-Cre. Both strains are inoculated in media with or without 5 μg/mL doxycycline, and are grown to stationary phase where after they are spun down. 0.5 mL supernatant is mixed with 0.5 mL 600 μM α-factor and incubated at 30° C. for 4 h. A corresponding amount of 5 μM α-factor (assuming no α-factor has been degraded) from each supernatant/α-factor incubation mix is used to induce cultures of JL275 with pFUS1J2-ubiM-Cre and pTEF1-loxP-GFP-loxP-mCherry (FIG. 4A). 0 and 5 μM α-factor are used as controls.

On to α-factor, for which, in the assay with strains JL277-JL280, the mCherry production induction result is “barely induced unless α-factor is added”. Further, the “mCherry expression from pFUS1 compared to the background strain autofluorescence” value with FUS1 promoter (pFUS1) is “approximately 20 fold”. The “System titratability (mCherry output)” value in assay [1] (0, 0.1, 0.5, 1, 5 or 10 μM α-factor) is recorded as “mCherry output correlating to the amount of α-factor added”. Moreover, in assay [1] (5 μM α-factor, 0, 8 and 24 h), the “GFP to mCherry production shift” value is reported as “clear shift from GFP to mCherry production”.

B1: Bar1: α-factor degrading protease (protein, UniProt P12630 25-587, looked up)
Barrierpepsin: LTNDGTGHLEFLLQHEEEMYYATTLDIGTPSQSLTVLFDTGSADFWVMDSSNPFCLPNSNTSSYSNATYNGEEVKPSIDCRSMSTYNEHRSSTYQYLENGRFYITYADGTFADGSWGTETVSINGIDIPNIQFGVAKYATTPVSGVLGIGFPRRESVKGYEGAPNEYYPNFPQILKSEKIIDVVAYSLFLNSPDSGTGSIVFGAIDESKFSGDLFTFPMVNEYPTIVDAPATLAMTIQGLGAQNKSSCEHETFTTTKYPVLLDSGTSLLNAPKVIADKMASFVNASYSEEEGIYILDCPVSVGDVEYNFDFGDLQISVPLSSLILSPETEGSYCGFAVQPTNDSMVLGDVFLSSAYVVFDLDNYKISLAQANWNASEVSKKLVNIQTDGSISGAKIATAEPWSTNEPFTVTSDIYSSTGCKSRPFLQSSTASSLIAETNVQSRNCSTKMPGTRSTTVLSKPTQNSAMHQSTGAVTQTSNETKLELSSTMANSGSVSLPTSNSIDKEFEHSKSQTTSDPSVAEHSTFNQTFVHETKYRPTHKTVITETVTKYSTVLINVCKPTY
Take B1: the “Degradation of α-factor by supernatant” value in assay [2] was “functional and degrades α-factor”.
